Laboratory results as given in patent publication US7427625B2, “Substituted thiatriazaacenaphthylene-6-carbonitrile kinase inhibitors” (Janssen Pharmaceutica, N.V., priority 2006, dated 2008).

What follows are compounds tested against T1, Lyn kinase (Homo sapiens, UniProt P07948) (assay: Lyn Kinase Assay). Details: not given.
T1 construct: purchased Upstate Biotechnology, Lake Placid, N.Y
Format: biochemical
Procedure: A mixture of a 10× kinase buffer (500 mM MOPS at pH 7.5, 1 mM EGTA, 1 mM Sodium Vanadate, 1% β-mercaptoethanol and 100 mM Magnesium Acetate), ATP (5 μM final from a 10 mM stock), polyGluTyr (0.1 mg/mL final from a 1 mg/mL stock), γ-^33P ATP (10 μCi/μL stock) and water (20 μL/well) was added to each well of a Streptavidin Flashplate.
Test compound in 100% DMSO (0.5 μL) was added to the appropriate wells. Diluted Lyn kinase (human) (Upstate Biotechnology, Lake Placid, N.Y.) (diluted in a buffer consisting of 50 mM Tris at pH 7.5, 0.1 mM EGTA, Sodium Vanadate (0.1 mM), β-mercaptoethanol (0.1%) and 1 mg/mL bovine serum albumin) (2.5 μL) was added to the wells to initiate the reactions.
The reaction plates were incubated at 30° C. for 40 min. The reaction was terminated by the addition of a 3% phosphoric acid solution (5 μL). The reaction product (10 μL) was spotted onto a P30 filtermat and washed for 5 minutes in phosphoric acid (75 mM). The wash sequence was repeated two more times, followed with one final wash in methanol. The plates were then dried, sealed and read on the TopCount scintillation counter after adding 30 μL scintillation fluid.
Percent inhibition was derived according to the procedure described in Example 2. For those compounds without an IC50, the percent inhibition results are shown at a test concentration of 2 μM.

T1 sequence (P07948 whole entry): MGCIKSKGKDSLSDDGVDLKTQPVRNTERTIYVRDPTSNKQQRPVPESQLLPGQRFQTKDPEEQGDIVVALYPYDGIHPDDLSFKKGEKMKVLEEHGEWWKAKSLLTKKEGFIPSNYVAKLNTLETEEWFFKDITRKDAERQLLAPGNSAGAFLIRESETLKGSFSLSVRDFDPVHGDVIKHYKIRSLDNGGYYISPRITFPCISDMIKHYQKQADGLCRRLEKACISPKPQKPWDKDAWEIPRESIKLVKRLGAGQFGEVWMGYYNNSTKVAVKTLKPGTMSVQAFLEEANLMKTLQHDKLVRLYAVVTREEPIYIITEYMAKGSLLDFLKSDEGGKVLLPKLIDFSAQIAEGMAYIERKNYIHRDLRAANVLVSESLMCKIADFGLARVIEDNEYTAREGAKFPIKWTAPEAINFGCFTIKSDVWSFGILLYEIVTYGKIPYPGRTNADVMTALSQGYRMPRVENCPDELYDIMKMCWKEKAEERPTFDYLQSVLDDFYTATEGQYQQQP

| IC50 | SMILES |
| --- | --- |
| 477 nM | N#Cc1cnc2sc(C(=O)Nc3ccc(CN4CCOCC4)cc3)c3c2c1N(c1c(Cl)ccc2c1OCO2)C(=O)N3 [Cpd 4, 5-(5-chloro-benzo[1,3]dioxol-4-yl)-6-cyano-4-oxo-4,5-dihydro-3H-1-thia-3,5,8-triaza-acenaphthylene-2-carboxylic acid (4-morpholin-4-ylmethyl-phenyl)-amide] |
| 268 nM | CN1CCC(NC(=O)c2sc3ncc(C#N)c4c3c2NC(=O)N4c2c(Cl)ccc3c2OCO3)CC1 [Cpd 10, 5-(5-chloro-benzo[1,3]dioxol-4-yl)-6-cyano-4-oxo-4,5-dihydro-3H-1-thia-3,5,8-triaza-acenaphthylene-2-carboxylic acid (1-methyl-piperidin-4-yl)-amide] |
| 113 nM | N#Cc1cnc2sc(C(=O)Nc3ccc(CCN4CCCCC4)cc3)c3c2c1N(c1c(Cl)ccc2c1OCO2)C(=O)N3 [Cpd 11, 5-(5-chloro-benzo[1,3]dioxol-4-yl)-6-cyano-4-oxo-4,5-dihydro-3H-1-thia-3,5,8-triaza-acenaphthylene-2-carboxylic acid [4-(2-piperidin-1-yl-ethyl)-phenyl]-amide] |

Same assay, conditions: test concentration of 2 μM; read-out: Lyn percent inhibition

| inhibition at 2 µM | SMILES |
| --- | --- |
| 83% | COc1cc(N2C(=O)Nc3c(C(=O)Nc4ccc(CN5CCOCC5)cc4)sc4ncc(C#N)c2c34)c(Cl)cc1Cl [Cpd 5, 6-cyano-5-(2,4-dichloro-5-methoxy-phenyl)-4-oxo-4,5-dihydro-3H-1-thia-3,5,8-triaza-acenaphthylene-2-carboxylic acid (4-morpholin-4-ylmethyl-phenyl)-amide] |
| 75% | COc1cc(N2C(=O)Nc3c(C(=O)Nc4ccc(CCN5CCOCC5)cc4)sc4ncc(C#N)c2c34)c(Cl)cc1Cl [Cpd 6, 6-cyano-5-(2,4-dichloro-5-methoxy-phenyl)-4-oxo-4,5-dihydro-3H-1-thia-3,5,8-triaza-acenaphthylene-2-carboxylic acid [4-(2-morpholin-4-yl-ethyl)-phenyl]-amide] |
| 43% | CCOC(=O)c1sc2nc(N3CCOCC3)c(C#N)c3c2c1NC(=O)N3c1c(Cl)ccc2c1OCO2 [Cpd 7, 5-(5-chloro-benzo[1,3]dioxol-4-yl)-6-cyano-7-morpholin-4-yl-4-oxo-4,5-dihydro-3H-1-thia-3,5,8-triaza-acenaphthylene-2-carboxylic acid ethyl ester] |
| 40% | N#Cc1c(N2CCOCC2)nc2sc(C(=O)Nc3ccc(CN4CCOCC4)cc3)c3c2c1N(c1c(Cl)ccc2c1OCO2)C(=O)N3 [Cpd 8, 5-(5-chloro-benzo[1,3]dioxol-4-yl)-6-cyano-7-morpholin-4-yl-4-oxo-4,5-dihydro-3H-1-thia-3,5,8-triaza-acenaphthylene-2-carboxylic acid (4-morpholin-4-ylmethyl-phenyl)-amide] |
| 58% | Cc1nc2sc(C(=O)Nc3ccc(CN4CCOCC4)cc3)c3c2c(c1C#N)N(c1c(Cl)ccc2c1OCO2)C(=O)N3 [Cpd 9, 5-(5-chloro-benzo[1,3]dioxol-4-yl)-6-cyano-7-methyl-4-oxo-4,5-dihydro-3H-1-thia-3,5,8-triaza-acenaphthylene-2-carboxylic acid (4-morpholin-4-ylmethyl-phenyl)-amide] |
| 93% | CN1CCN(CCc2ccc(NC(=O)c3sc4ncc(C#N)c5c4c3NC(=O)N5c3c(Cl)ccc4c3OCO4)cc2)CC1 [Cpd 12, 5-(5-chloro-benzo[1,3]dioxol-4-yl)-6-cyano-4-oxo-4,5-dihydro-3H-1-thia-3,5,8-triaza-acenaphthylene-2-carboxylic acid {4-[2-(4-methyl-piperazin-1-yl)-ethyl]-phenyl}-amide] |
| 76% | N#Cc1cnc2sc(C(=O)Nc3ccc(CCN4CCOCC4)cc3)c3c2c1N(c1c(Cl)ccc2c1OCO2)C(=O)N3 [Cpd 13, 5-(5-chloro-benzo[1,3]dioxol-4-yl)-6-cyano-4-oxo-4,5-dihydro-3H-1-thia-3,5,8-triaza-acenaphthylene-2-carboxylic acid [4-(2-morpholin-4-yl-ethyl)-phenyl]-amide] |
| 86% | COC1CCN(Cc2ccc(NC(=O)c3sc4ncc(C#N)c5c4c3NC(=O)N5c3c(Cl)ccc4c3OCO4)cc2)CC1 [Cpd 18, 5-(5-chloro-benzo[1,3]dioxol-4-yl)-6-cyano-4-oxo-4,5-dihydro-3H-1-thia-3,5,8-triaza-acenaphthylene-2-carboxylic acid [4-(4-methoxy-piperidin-1-ylmethyl)-phenyl]-amide] |
